Publication PMC8953563, “A Study on the Effect of the Substituent against PAK4 Inhibition Using In Silico Methods” (International Journal of Molecular Sciences, 2022)
Where two headings read alike, the source gives them in different places.

Target: PAK4 (Homo sapiens, UniProt O96013)
Test: radiometric [γ-33P]-ATP kinase assay (Eurofins KinaseProfiler), myelin basic protein substrate
Format: biochemical

Sequence of PAK4 (O96013 whole entry): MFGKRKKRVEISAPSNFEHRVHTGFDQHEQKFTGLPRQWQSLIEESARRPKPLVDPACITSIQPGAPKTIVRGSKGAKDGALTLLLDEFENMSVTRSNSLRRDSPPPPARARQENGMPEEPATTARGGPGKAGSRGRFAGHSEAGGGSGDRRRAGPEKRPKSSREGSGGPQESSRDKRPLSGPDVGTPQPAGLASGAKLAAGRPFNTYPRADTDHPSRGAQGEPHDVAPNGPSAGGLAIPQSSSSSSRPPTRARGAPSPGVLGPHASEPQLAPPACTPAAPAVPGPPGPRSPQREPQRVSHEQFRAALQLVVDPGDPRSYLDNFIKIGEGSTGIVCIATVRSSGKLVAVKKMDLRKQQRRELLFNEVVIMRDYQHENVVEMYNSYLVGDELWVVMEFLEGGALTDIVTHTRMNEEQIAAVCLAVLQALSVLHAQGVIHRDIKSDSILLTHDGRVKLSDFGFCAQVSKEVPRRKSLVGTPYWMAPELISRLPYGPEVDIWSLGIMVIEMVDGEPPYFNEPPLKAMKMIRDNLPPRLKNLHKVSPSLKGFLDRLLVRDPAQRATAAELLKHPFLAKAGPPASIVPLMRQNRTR

SMILES | IC50 (read-out: 2) [µM] | IC50 (read-out: 1) [µM]
CC(C)c1nn(C)cc1-c1nc2cc(Cl)cnc2[nH]1 [compound 2, 6-chloro-2-(3-isopropyl-1-methyl-1H-pyrazol-4-yl)-3H-imidazo[4,5-b]pyridine] | 8.53 | –
CC(C)c1nn(C)cc1-c1nc2cc(Br)cnc2[nH]1 [compound 1, 6-bromo-2-(3-isopropyl-1-methyl-1H-pyrazol-4-yl)-3H-imidazo[4,5-b]pyridine] | – | 5.15
